Data taken from US20070196902A1, “Method of detecting AZT resistance in HIV” (University of Pittsburgh, priority 2006, published 2007).

How the values were obtained:
Wild-type HIVLAI = assay: Drug susceptibility assay in P4/R5 cells, recombinant virus; assay type: cell-based, HIV-1; details: Human immunodeficiency virus 1, P4/R5; Wild-type; mean ± SD, at least three experiments; read-out: IC50
Method: (§1) Drug susceptibility assays. NRTI susceptibility was determined in P4/R5 cells as described previously (Parikh, U. M., et al. 2005. Antimicrob. Agents Chemother. 49:1139-44). Briefly, threefold dilutions of inhibitor were added to P4/R5 cells in triplicate and cells were infected with an amount of virus that produced 100 relative units of light (RLU) in no drug, virus control wells. After 48 hours, the cells were lysed (Gal-Screen; Tropix/Applied Biosystems, Foster City, Calif.) and the RLU was measured using a ThermoLabSystems luminometer (Waltham, Mass.). The IC50 and fold-resistance were calculated as described above. IC50 values from at least three independent experiments were log10 transformed and compared for statistically significant differences using the two-sample Student's t test.
(§2) Construction of mutant recombinant HIV-1. Mutant recombinant plasmid clones of virus were generated by oligonucleotide site-directed mutagenesis as described previously (Shi, C., and J. W. Mellors. 1997. A recombinant retroviral system for rapid […] analysis of human immunodeficiency virus type 1 susceptibility to reverse transcriptase inhibitors. Antimicrob. Agents Chemother. 41:2781-5), using the p6HRT-MO plasmid. p6HRT-MO contains the entire RT and protease coding sequence as previously described (Le Grice, S. F., and F. Gruninger-Leitch. 1990. Rapid purification of homodimer and heterodimer HIV-1 reverse transcriptase by metal chelate affinity chromatography. Eur. J. Biochem. 187:307-14) and four silent restriction sites (Xma I, Mlu I, Xba I, and NgoM IV from the 5′ to 3′ end of RT at codons 14, 358, 490 and 554, respectively). After site-directed mutagenesis (QIAamp kit, QIAGEN, Valencia, Calif.), the mutated RT was ligated into pxxHIV-1LAI MO that contains the entire genome of HIV-1LAI and the same silent restriction sites as p6HRT-MO. Infectious virus was generated by electroporating the mutated xxHIV-1LAI MO plasmid into MT-2 cells as described above. All mutations in recombinant viruses were confirmed by full-length sequencing of the entire RT coding region.

[1] = system: HIVLAI RT 67N/70R/215F/509L; assay: Drug susceptibility assay in P4/R5 cells, site-directed mutant; assay type: cell-based, HIV-1
[2] = system: HIVLAI RT 67N/70R/215F/371V; assay: as above; assay type: cell-based, HIV-1
Method: as §1, §2

[3] = system: HIVLAI RT 67N/70R/215I/371V; assay: as above; assay type: cell-based, HIV-1
Method: as §1, §2

[4] = system: HIVLAI RT 67N/70R/215I/509L; assay: as above; assay type: cell-based, HIV-1
Method: as §1, §2

HIVLAI RT 67N/70R/215I = assay: as above; assay type: cell-based, HIV-1
Method: as §1, §2

HIVLAI RT 67N/70R/371V = assay: as above; assay type: cell-based, HIV-1
Method: as §1, §2

HIVLAI RT 67N/70R/509L = assay: as above; assay type: cell-based, HIV-1
Method: as §1, §2

HIVLAI RT A371V/Q509L = assay: as above; assay type: cell-based, HIV-1
Method: as §1, §2

HIVLAI RT A371V = assay: as above; assay type: cell-based, HIV-1
Method: as §1, §2

[5] = system: HIVLAI RT D67N/K70R/A371V/Q509L; assay: as above; assay type: cell-based, HIV-1
Method: as §1, §2

[6] = system: HIVLAI RT D67N/K70R/T215F/A371V/Q509L; assay: as above; assay type: cell-based, HIV-1
Method: as §1, §2

[7] = system: HIVLAI RT D67N/K70R/T215F; assay: as above; assay type: cell-based, HIV-1
Method: as §1, §2

[8] = system: HIVLAI RT D67N/K70R/T215I/A371V/Q509L; assay: as above; assay type: cell-based, HIV-1
Method: as §1, §2

HIVLAI RT D67N/K70R = assay: as above; assay type: cell-based, HIV-1
Method: as §1, §2

HIVLAI RT Q509L = assay: as above; assay type: cell-based, HIV-1
Method: as §1, §2

[9] = system: HIV-1 RT mutants with A371V and/or Q509L, alone or in combination with TAMs; assay: Drug susceptibility of site-directed mutants, comparisons between mutants with and without A371V/Q509L; assay type: cell-based
HIV-1 RT D549N = details: D549N mutation; cited from earlier work
HIV-1 RT H539N = details: H539N mutation; cited from earlier work

In the case of `Cc1cn([C@H]2C[C@H](N=[N+]=[N-])[C@@H](CO)O2)c(=O)[nH]c1=O` [AZT, 3′-azido-3′-dideoxythymidine], the IC50 (Wild-type HIVLAI) is reported as 200 ± 100 nM, the Fold-Resistance ([1]; 67N/70R/215F/509L compared to wild-type) is reported as 128 fold and the IC50 ([1]; Human immunodeficiency virus 1, P4/R5, 67N/70R/215F/509L, mean ± SD) is reported as 28 ± 17 µM. The Fold-Resistance ([2]; 67N/70R/215F/371V compared to wild-type) was 22 fold, the IC50 ([2]; Human immunodeficiency virus 1, P4/R5, 67N/70R/215F/371V, mean ± SD) was 4.9 ± 2.9 µM and the Fold-Resistance ([3]; 67N/70R/215I/371V compared to wild-type) was 2.6 fold. The IC50 ([3]; Human immunodeficiency virus 1, P4/R5, 67N/70R/215I/371V, mean ± SD) was 600 ± 300 nM, the Fold-Resistance ([4]; 67N/70R/215I/509L compared to wild-type) was 14 fold and the IC50 ([4]; Human immunodeficiency virus 1, P4/R5, 67N/70R/215I/509L, mean ± SD) was 3000 ± 2200 nM. The Fold-Resistance (HIVLAI RT 67N/70R/215I; 67N/70R/215I compared to wild-type) was 1.3 fold, the IC50 (HIVLAI RT 67N/70R/215I; Human immunodeficiency virus 1, P4/R5, 67N/70R/215I, mean ± SD) was 300 ± 200 nM and the Fold-Resistance (HIVLAI RT 67N/70R/371V; 67N/70R/371V compared to wild-type) was 6.4 fold. The IC50 (HIVLAI RT 67N/70R/371V; Human immunodeficiency virus 1, P4/R5, 67N/70R/371V, mean ± SD) was 1400 ± 500 nM, the Fold-Resistance (HIVLAI RT 67N/70R/509L; 67N/70R/509L compared to wild-type) was 14 fold and the IC50 (HIVLAI RT 67N/70R/509L; Human immunodeficiency virus 1, P4/R5, 67N/70R/509L, mean ± SD) was 3000 ± 1000 nM. The Fold-Resistance (HIVLAI RT A371V/Q509L; A371V/Q509L compared to wild-type) was 1.7 fold, the IC50 (HIVLAI RT A371V/Q509L; Human immunodeficiency virus 1, P4/R5, A371V/Q509L, mean ± SD) was 300 ± 60 nM and the Fold-Resistance (HIVLAI RT A371V; A371V compared to wild-type) was 0.7 fold. It also gave an IC50 (HIVLAI RT A371V; Human immunodeficiency virus 1, P4/R5, A371V, mean ± SD) of 200 ± 40 nM, a Fold-Resistance ([5]; 67N/70R/371V/509L compared to wild-type) of 39 fold and an IC50 ([5]; Human immunodeficiency virus 1, P4/R5, 67N/70R/371V/509L, mean ± SD) of 9.1 ± 5.2 µM. For the same molecule, the Fold-Resistance ([6]; 67N/70R/215F/371V/509L compared to wild-type) was 934 fold, the IC50 ([6]; Human immunodeficiency virus 1, P4/R5, 67N/70R/215F/371V/509L, mean ± SD) was 203 ± 40 µM and the Fold-Resistance ([7]; 67N/70R/215F compared to wild-type) was 18 fold. It also gave an IC50 ([7]; Human immunodeficiency virus 1, P4/R5, 67N/70R/215F, mean ± SD) of 3.8 ± 2.1 µM, a Fold-Resistance ([8]; 67N/70R/215I/371V/509L compared to wild-type) of 41 fold and an IC50 ([8]; Human immunodeficiency virus 1, P4/R5, 67N/70R/215I/371V/509L, mean ± SD) of 9.4 ± 6.7 µM. It also gave a Fold-Resistance (HIVLAI RT D67N/K70R; 67N/70R compared to wild-type) of 4.6 fold, an IC50 (HIVLAI RT D67N/K70R; Human immunodeficiency virus 1, P4/R5, 67N/70R, mean ± SD) of 1100 ± 600 nM and an IC50 (HIVLAI RT Q509L; Human immunodeficiency virus 1, P4/R5, Q509L, mean ± SD) of 300 ± 200 nM. The Fold-Resistance (HIVLAI RT Q509L; Q509L compared to wild-type) was 1.3 fold, the “greater AZT resistance conferred by T215F than T215I” value ([9]; T215F versus T215I) was about 25 fold and the “AZT resistance conferred by A371V and Q509L, alone or together” value ([9]; in the absence of TAMs) was “did not confer AZT resistance”. The “increase in resistance (reduced susceptibility)” value (HIV-1 RT D549N) was 12 fold and the “increase in resistance (reduced susceptibility)” value (HIV-1 RT H539N) was 180 fold.
